Experiment: Concentration required for cleaving the supercoiled DNA at pH 8
Assay type: functional

SMILES: C[n+]1c(C#Cc2ccccc2)n(CC#Cc2ccccc2)c2ccccc21
- Concentration: 100 µM
